Common to all, as to experiment: two-electrode voltage clamp, Xenopus oocytes
Common to all, as to format: cell-based
(In general: In two-electrode clamp one electrode senses voltage and the other passes current.)

For test [1], the target named is T1, Pun-GLC-2/GLC-3 (Parascaris univalens, UniProt A0A894K4V1+A0A894KE58).
T1 construct: full-length subunits co-expressed 1:1 (cRNA) in Xenopus laevis oocytes; heteromeric, pentameric GluCl, stoichiometry unknown
T1 sequence (A0A894KE58 21-448): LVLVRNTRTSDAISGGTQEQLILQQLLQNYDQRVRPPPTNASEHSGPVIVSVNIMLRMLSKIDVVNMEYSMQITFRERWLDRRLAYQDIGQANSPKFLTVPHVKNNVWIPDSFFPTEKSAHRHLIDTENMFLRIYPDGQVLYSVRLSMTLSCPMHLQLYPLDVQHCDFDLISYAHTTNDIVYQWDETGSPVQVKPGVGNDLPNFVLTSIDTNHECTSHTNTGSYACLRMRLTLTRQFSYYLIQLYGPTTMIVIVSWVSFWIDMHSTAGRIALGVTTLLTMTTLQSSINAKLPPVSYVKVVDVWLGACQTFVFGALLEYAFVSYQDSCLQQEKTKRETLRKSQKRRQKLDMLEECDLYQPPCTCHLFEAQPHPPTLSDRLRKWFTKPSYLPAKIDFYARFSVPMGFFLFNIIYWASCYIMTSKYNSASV
T1 sequence (A0A894K4V1 25-485): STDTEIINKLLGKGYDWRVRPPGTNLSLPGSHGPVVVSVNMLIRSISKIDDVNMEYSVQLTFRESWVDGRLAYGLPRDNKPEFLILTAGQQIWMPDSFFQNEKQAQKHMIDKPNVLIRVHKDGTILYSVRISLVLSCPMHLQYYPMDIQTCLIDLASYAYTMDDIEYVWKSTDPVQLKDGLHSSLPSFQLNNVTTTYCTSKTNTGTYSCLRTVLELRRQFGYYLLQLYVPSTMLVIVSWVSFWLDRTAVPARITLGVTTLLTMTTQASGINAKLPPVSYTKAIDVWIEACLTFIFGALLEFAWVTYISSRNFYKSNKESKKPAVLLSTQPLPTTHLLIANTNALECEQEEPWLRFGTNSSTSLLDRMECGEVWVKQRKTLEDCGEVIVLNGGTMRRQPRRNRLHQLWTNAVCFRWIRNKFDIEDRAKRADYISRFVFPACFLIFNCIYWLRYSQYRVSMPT

The target of test [2] is T2, Cel-AVR-14B (Caenorhabditis elegans, UniProt Q17369).
T2 construct: full-length, expressed singly (cRNA) in Xenopus laevis oocytes; homomeric pentameric GluCl; b70 prints CAA04170 for AVR-14B, which b73 gives to AVR-15B
T2 sequence (Q17369 22-430): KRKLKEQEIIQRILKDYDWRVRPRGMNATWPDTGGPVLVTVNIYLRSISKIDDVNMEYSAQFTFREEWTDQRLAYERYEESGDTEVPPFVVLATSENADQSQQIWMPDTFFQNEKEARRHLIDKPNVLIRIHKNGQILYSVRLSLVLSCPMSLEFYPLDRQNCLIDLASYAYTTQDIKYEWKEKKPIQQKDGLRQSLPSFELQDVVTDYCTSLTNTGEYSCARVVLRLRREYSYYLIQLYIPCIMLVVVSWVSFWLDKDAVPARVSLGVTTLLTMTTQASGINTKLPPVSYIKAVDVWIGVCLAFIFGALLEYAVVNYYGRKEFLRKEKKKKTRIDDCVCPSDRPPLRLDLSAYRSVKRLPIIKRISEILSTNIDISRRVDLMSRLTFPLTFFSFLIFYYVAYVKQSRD

Test [3] addresses T3, Cel-AVR-14B/GLC-2 (Caenorhabditis elegans, UniProt Q17328+Q17369).
T3 construct: full-length subunits co-expressed 1:1 (cRNA) in Xenopus laevis oocytes; heteromeric, pentameric GluCl, stoichiometry unknown; b70 prints CAA04170 for AVR-14B, which b73 gives to AVR-15B
T3 sequence (Q17369 22-430): T2 sequence (Q17369 22-430)
T3 sequence (Q17328 23-434): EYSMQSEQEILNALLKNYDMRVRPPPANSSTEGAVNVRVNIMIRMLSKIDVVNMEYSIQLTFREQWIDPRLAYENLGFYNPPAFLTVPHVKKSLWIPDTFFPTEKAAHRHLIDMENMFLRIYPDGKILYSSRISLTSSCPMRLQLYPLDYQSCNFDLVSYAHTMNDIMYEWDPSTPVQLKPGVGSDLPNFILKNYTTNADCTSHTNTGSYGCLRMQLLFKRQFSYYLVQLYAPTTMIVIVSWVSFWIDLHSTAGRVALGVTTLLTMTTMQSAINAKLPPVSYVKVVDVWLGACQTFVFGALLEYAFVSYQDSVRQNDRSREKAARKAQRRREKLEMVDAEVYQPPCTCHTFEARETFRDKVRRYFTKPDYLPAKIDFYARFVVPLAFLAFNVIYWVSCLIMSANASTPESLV

Test [4] deals with T4, Pun-GLC-3 (Parascaris univalens, UniProt A0A894K4V1).
T4 construct: full-length, expressed singly (cRNA) in Xenopus laevis oocytes; homomeric pentameric GluCl
T4 sequence (A0A894K4V1 25-485): T1 sequence (A0A894K4V1 25-485)

In test [5] the target is T5, Cel-GLC-2 (Caenorhabditis elegans, UniProt Q17328).
T5 construct: full-length, expressed singly (cRNA) in Xenopus laevis oocytes; homomeric pentameric GluCl
T5 sequence (Q17328 23-434): T3 sequence (Q17328 23-434)

Test [6] concerns the target T6, Pun-AVR-14B/GLC-2 (Parascaris univalens, UniProt A0A894K7G1+A0A894KE58).
T6 construct: full-length subunits co-expressed 1:1 (cRNA) in Xenopus laevis oocytes; heteromeric, pentameric GluCl, stoichiometry unknown
T6 sequence (A0A894K7G1 19-428): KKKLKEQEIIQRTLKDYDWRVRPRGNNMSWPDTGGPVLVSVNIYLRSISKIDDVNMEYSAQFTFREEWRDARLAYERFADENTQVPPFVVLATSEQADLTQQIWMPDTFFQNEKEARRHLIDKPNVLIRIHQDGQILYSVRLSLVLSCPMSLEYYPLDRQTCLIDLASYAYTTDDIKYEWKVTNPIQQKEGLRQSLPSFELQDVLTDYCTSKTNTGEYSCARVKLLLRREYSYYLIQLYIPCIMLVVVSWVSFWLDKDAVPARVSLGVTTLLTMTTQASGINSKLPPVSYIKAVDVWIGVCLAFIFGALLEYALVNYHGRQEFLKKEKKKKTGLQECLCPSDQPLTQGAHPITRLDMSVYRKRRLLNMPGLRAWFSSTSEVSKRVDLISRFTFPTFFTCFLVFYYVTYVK
T6 sequence (A0A894KE58 21-448): T1 sequence (A0A894KE58 21-448)

Test [7] concerns the target T7, Cel-GLC-2/GLC-3 (Caenorhabditis elegans, UniProt G5EEZ3+Q17328).
T7 construct: full-length subunits co-expressed 1:1 (cRNA) in Xenopus laevis oocytes; heteromeric, pentameric GluCl, stoichiometry unknown
T7 sequence (Q17328 23-434): T3 sequence (Q17328 23-434)
T7 sequence (G5EEZ3 23-484): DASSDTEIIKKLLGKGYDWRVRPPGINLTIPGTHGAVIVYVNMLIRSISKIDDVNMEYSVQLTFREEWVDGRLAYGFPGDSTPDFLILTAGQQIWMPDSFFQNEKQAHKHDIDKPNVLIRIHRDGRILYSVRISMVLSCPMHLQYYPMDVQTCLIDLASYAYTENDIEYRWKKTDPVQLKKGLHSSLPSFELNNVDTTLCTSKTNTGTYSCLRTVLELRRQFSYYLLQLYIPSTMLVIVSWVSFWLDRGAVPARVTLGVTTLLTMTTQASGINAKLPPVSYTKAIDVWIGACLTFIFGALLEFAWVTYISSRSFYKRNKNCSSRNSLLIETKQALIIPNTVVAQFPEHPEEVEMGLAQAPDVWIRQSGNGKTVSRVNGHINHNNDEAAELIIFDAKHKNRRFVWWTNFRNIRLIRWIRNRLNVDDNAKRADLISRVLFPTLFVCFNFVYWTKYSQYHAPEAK

The results in this text go back to paper doi:10.1101/2020.12.17.423223v1 (biorxiv, 2020).

One may read the EC50 as the concentration at which the effect is half-maximal. Read a low EC50 as higher potency in that assay.

`N[C@@H](CCC(=O)O)C(=O)O` [glutamate]: the EC50 stood at 120 ± 5.7 µM in test [1]; 112 ± 13 µM in test [2]; 20.5 ± 1.3 µM in test [3]; 1480 ± 111 µM in test [4]; 215 ± 13.1 µM in test [5]; 13.6 ± 1.6 µM in test [6]. The compound also registered an EC50 in test [7] of 46.8 ± 3.7 µM.
